The values below come from patent US11964956B2, “Cannabinergic compounds and uses thereof” (Northeastern University, priority 2012, dated 2024).

The structures appear in SMILES notation. Like-named read-outs stand apart in the source and are kept apart here.

The target in one data set is T1, mCB2 (Mus musculus, UniProt P47936).
T1 construct: expressed in transfected cells; host or cells: HEK293
Kind of data set: mCB2 competition-equilibrium binding with [3H]CP-55,940, HEK293 membranes. As for the experimental part:
(§1) HEK293 cells expressing hCB1 or hCB2 or mCB2 receptor are used for membrane preparations according to Abadji et al. The resulting pellet is resuspended in 10 mM Tris-chloride, pH 7.4, with 5 mM MgCl2 and 2 mM EDTA (TME), rapidly frozen in liquid nitrogen and stored at −80° C. for no longer than two months. Protein content is assayed by using the Bio-Rad protein assay according to the manufacturer's protocol.
(§2) All the cannabinoids discussed in this invention are tested for their ability to bind to CB 1 and CB2 receptors using membranes from rat brain or HEK293 cells expressing either mCB2 or hCB2, respectively via competition-equilibrium binding using [^3H]CP-55,940. Results are analyzed using nonlinear regression to determine ligand IC50 (Prism by GraphPad Software, Inc.), and Ki values are calculated from the IC50. IC50 and Ki values are determined from at least three independent experiments.
(§3) Some disclosed compounds were tested for CB1 and CB2 receptor binding affinity, which can be represented by a Ki value. The Ki value is the affinity constant and describes the affinity of the compound for the receptor. […] A detailed description of the methods used to test binding affinity of compounds is given in US 2007/0135388 and in Papahatjis, et al., J. Med. Chem. (2007) 4048, the content of each of which is hereby incorporated by reference.

The target of data set [1] is T2, hCB2 (Homo sapiens, UniProt P34972).
T2 construct: expressed in transfected cells; host or cells: HEK293
Kind of data set: hCB2 competition-equilibrium binding with [3H]CP-55,940, HEK293 membranes. Here is the method: as §1, §2, §3

Data set [2] addresses T3, rCB1 (Rattus norvegicus, UniProt P20272). Briefly: cAMP assay, rCB1. It is filed as cell-based. Here is the method: (§4) Functional characterization of some of the disclosed compounds was performed by using the cyclic adenosine monophosphate (cAMP) assay. The functional potency of the compound in the cAMP assay is represented by the EC50 value. The lower the EC50 value, the higher the functional potency. A detailed description of the cyclic adenosine monophosphate (cAMP) assay is given in Nikas et al. J. Med. Chem. (2010) 6996, the content of which is incorporated herein by reference. Table 10 lists the EC50 values of certain compounds of Formula (Je) in the cAMP assay.
On the technique in general: cAMP levels reflect the balance of adenylyl cyclase and phosphodiesterase activity.

Data set [3] addresses T2, hCB2. Kind of data set: cAMP assay, hCB2. It is filed as cell-based. As to conditions: for Emax: cAMP assay. As for the experimental part: as §4
In another data set the test system is rats. Briefly: Hypothermia assay (FIG. 3A). It is filed as in vivo, rat. As to conditions: change in body temperature vs time after injection, compared to AM10843.
Data set [4] has as its target T3, rCB1. Briefly: rCB1 competition-equilibrium binding with [3H]CP-55,940, rat brain membranes. Further details: Frozen rat brains (CB1 source) are obtained from Pel-Freeze Biologicals; tissue Pel-Freeze Biologicals (Rogers, AK); host or cells: rat brain membranes. Here is the method:
Frozen rat brains (CB1 source) are obtained from Pel-Freeze Biologicals (Rogers, AK) and stored at −80° C. until use. Membranes are prepared according to the method described by Dodd et al. and used in our laboratory as reported.
as §2, §3

The test system of a further data set is mice. Briefly: Analgesia assay, tail flick / tail immersion (FIG. 3B). Particulars: iso-active doses, compared with nabilone (AM10806) and AM10843. It is filed as in vivo, mouse. As for the experimental part:
Some of the disclosed compounds were tested in vivo using two well defined rodent assays for cannabinergic activity, the analgesia and the hypothermia assays. The analgesia assay (tail immersion test) determines the ability of a test compound to activate cannabinergic signaling, through modulation of cannabinoid receptors, and thereby reduce nociceptive pain. The hypothermia test determines the ability of a test compound to act as a central CB1 agonist and decrease the body temperature. […] The details of both assays are described below.
Analgesia Assay. C57BL6/J mice (Jackson Laboratories, Bar Harbor Maine) were single housed at least 1 h before start of experiment. Food and water were removed immediately before the first injection.
Route of administration=i.p. Volume=1 mL/100 g body weight.
Tail withdrawal test: 52° C. water bath (use bags). Bag was made of stapled surgery sheets to form a small pocket the size of a mouse. […] The tip of the mouse's tail was dipped into the warm water, with 1 cm submerged.

For data set [5] the following is noted: background statement; cited from earlier work.

T3 sequence (P20272 whole entry): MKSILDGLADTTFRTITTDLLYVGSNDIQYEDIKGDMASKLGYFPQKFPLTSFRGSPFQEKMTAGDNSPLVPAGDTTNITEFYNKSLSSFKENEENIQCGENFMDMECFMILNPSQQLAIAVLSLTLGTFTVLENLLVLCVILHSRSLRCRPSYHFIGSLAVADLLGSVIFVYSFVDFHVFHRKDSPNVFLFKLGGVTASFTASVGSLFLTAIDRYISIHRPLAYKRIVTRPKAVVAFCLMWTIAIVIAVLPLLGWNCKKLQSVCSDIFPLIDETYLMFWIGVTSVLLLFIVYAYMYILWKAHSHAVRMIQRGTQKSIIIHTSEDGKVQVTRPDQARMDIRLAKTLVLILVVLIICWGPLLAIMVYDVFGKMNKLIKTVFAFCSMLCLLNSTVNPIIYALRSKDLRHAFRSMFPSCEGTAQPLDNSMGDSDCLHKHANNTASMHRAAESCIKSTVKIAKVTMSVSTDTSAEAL
T2 sequence (P34972 whole entry): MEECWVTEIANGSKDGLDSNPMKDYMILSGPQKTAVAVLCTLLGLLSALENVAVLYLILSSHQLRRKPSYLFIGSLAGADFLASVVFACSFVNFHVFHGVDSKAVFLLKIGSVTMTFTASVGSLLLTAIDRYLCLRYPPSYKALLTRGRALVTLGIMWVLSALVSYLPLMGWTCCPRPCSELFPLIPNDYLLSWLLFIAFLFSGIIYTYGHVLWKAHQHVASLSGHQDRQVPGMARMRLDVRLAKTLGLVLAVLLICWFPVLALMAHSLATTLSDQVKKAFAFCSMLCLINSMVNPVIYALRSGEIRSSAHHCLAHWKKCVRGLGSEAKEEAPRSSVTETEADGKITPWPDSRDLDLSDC
T1 sequence (P47936 whole entry): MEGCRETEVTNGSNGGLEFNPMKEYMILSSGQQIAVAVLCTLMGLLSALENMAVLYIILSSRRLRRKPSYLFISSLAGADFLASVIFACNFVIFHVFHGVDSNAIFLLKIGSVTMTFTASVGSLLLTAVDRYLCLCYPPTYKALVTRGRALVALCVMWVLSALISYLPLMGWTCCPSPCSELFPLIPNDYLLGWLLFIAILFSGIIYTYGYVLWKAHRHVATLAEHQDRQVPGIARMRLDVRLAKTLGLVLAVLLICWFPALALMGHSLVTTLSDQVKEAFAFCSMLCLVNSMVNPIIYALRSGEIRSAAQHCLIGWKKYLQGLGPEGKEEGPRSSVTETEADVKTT

As usually defined, the Ki is a dissociation constant, usually derived from enzyme kinetics or from competition with a known ligand. As a reminder, the EC50 is the concentration at which the effect is half-maximal. As a reminder, the Emax is the size of the effect at its maximum, as opposed to the concentration needed. In the case of `CC(C)(C(=O)OCCCC#N)c1cc(O)c2c(c1)OC(C)(C)[C@@H]1CCC(=O)C[C@@H]21` [8 AM10811, 3-Cyanopropyl-2-((6aR,10aR)-1-hydroxy-6,6-dimethyl-9-oxo-6a,7,8,9,10,10a-hexahydro-6H-benzo[c]chromen-3-yl)-2-methylpropanoate], the inhibition constant Ki at mCB2 amounted to 1.1 ± 0.4 nM; on hCB2 [1] it was 6.2 ± 2.7 nM; on rCB1 [4], 0.7 ± 0.03 nM. In addition, the EC50 on rCB1 [2] was 0.4 ± 0.06 nM; at hCB2 [3], 0.1 ± 0.03 nM. Moreover, the maximal response (Emax) on rCB1 [2] (cAMP assay) worked out at 87%; on hCB2 [3], 77%. The “duration of hypothermic effect” value with rats is listed as “shorter acting”.
With `CCCOC(=O)CC(C)(C)c1cc(O)c2c(c1)OC(C)(C)[C@@H]1CCC(=O)C[C@@H]21` [18 AM10819, Propyl-3-((6aR,10aR)-1-hydroxy-6,6-dimethyl-9-oxo-6a,7,8,9,10,10a-hexahydro-6H-benzo[c]chromen-3-yl)-3-methylbutanoate], the results for the inhibitory constant (Ki) on mCB2, at hCB2 [1] and at rCB1 [4] were 26 ± 3.6 nM, 90 ± 11.3 nM and 11 ± 1.4 nM, respectively. The concentration for a half-maximal effect (EC50) on rCB1 [2] was found to be 15.9 ± 3.6 nM; at hCB2 [3], 0.2 ± 0.09 nM. Moreover, the figures for the Emax on rCB1 [2] (cAMP assay) and at hCB2 [3] were 90% and 82%, respectively. The “duration of analgesic effect (tail flick)” value with mice is recorded as “shorter acting”.
With `CCCCOC(=O)C(C)(C)c1cc(O)c2c(c1)OC(C)(C)C1CCC(=O)CC21` (stereo not shown) [AM 10843], the EC50 worked out at 1 ± 0.3 nM on rCB1 [2] and 1.1 ± 2.3 nM at hCB2 [3]. For the same compound, the maximal effect (Emax) at rCB1 [2] (cAMP assay) was 83%; at hCB2 [3], 80%.
Regarding `CC(C)(C(=O)OCCCN=[N+]=[N-])c1cc(O)c2c(c1)OC(C)(C)[C@@H]1CCC(=O)C[C@@H]21` [Compound 9, 3-Azidopropyl-2-((6aR,10aR)-1-hydroxy-6,6-dimethyl-9-oxo-6a,7,8,9,10,10a-hexahydro-6H-benzo[c]chromen-3-yl)-2-methylpropanoate], the inhibition constant Ki on mCB2 amounted to 4 nM; on hCB2 [1] it was 3.1 nM; on rCB1 [4], 0.13 nM. In addition, the results for the 50% effective concentration (EC50) on rCB1 [2] and at hCB2 [3] were 0.2 nM and 2.1 nM, respectively. In addition, the Emax at rCB1 [2] (cAMP assay) stood at 52%; on hCB2 [3], 87%.
With `CCCCCOC(=O)C(C)(C)c1cc(O)c2c(c1)OC(C)(C)[C@@H]1CCC(=O)C[C@@H]21` [Compound 34c, Pentyl 2-((6aR,10aR)-1-hydroxy-6,6-dimethyl-9-oxo-6a,7,8,9,10,10a-hexahydro-6H-benzo[c]chromen-3-yl)-2-methylpropanoate], the inhibition constant Ki stood at 6.1 ± 1.1 nM on mCB2, 11.5 ± 1.6 nM on hCB2 [1] and 0.4 ± 0.01 nM at rCB1 [4]. Also, the 50% effective concentration (EC50) was 8.9 ± 2.3 nM on rCB1 [2] and 8.4 ± 1.8 nM at hCB2 [3]. For the same compound, the maximum response (Emax) was determined as 94% at rCB1 [2] (cAMP assay) and 46% on hCB2 [3].
As for `CCC[C@@H](C)OC(=O)C(C)(C)c1cc(O)c2c(c1)OC(C)(C)[C@@H]1CCC(=O)C[C@@H]21` [Compound 34f, (R)-Pentan-2-yl 2-((6aR,10aR)-1-hydroxy-6,6-dimethyl-9-oxo-6a,7,8,9,10,10a-hexahydro-6H-benzo[c]chromen-3-yl)-2-methylpropanoate], the results for the Ki on mCB2, at hCB2 [1] and at rCB1 [4] were 36.4 ± 12.4 nM, 7 ± 2.1 nM and 4 ± 0.7 nM, respectively. Also, the EC50 on rCB1 [2] is 94.5 nM. Also, on rCB1 [2] (cAMP assay), the maximum response (Emax) stood at 71%.
With `CC(C)(C(=O)OCCCN1CCOCC1)c1cc(O)c2c(c1)OC(C)(C)[C@@H]1CCC(=O)C[C@@H]21` [Compound 34g, 3-Morpholinopropyl 2-((6aR,10aR)-1-hydroxy-6,6-dimethyl-9-oxo-6a,7,8,9,10,10a-hexahydro-6H-benzo[c]chromen-3-yl)-2-methylpropanoate], the inhibition constant (Ki) on mCB2 (Table 9, Formula (Ie), read-out: mCB2 (Ki)) came to 91.7 ± 20.4 nM; on hCB2 [1] (Table 9, Formula (Ie), read-out: hCB2 (Ki)), 18.2 ± 4.1 nM; on rCB1 [4] (Table 9, Formula (Ie), read-out: rCB1 (Ki)), 17 ± 3.5 nM. The same compound showed a maximal response (Emax) on rCB1 [2] (cAMP assay) of 78%. Besides, on rCB1 [2] (cAMP assay, read-out: rCB1 EC50), the 50% effective concentration (EC50) came out at 4.2 nM.
On to `CCCCSC(=O)C(C)(C)c1cc(O)c2c(c1)OC(C)(C)[C@@H]1CCC(=O)C[C@@H]21` [Compound 34h, S-Butyl 2-((6aR,10aR)-1-hydroxy-6,6-dimethyl-9-oxo-6a,7,8,9,10,10a-hexahydro-6H-benzo[c]chromen-3-yl)-2-methylpropanethioate], for which the values for the Ki at mCB2, at hCB2 [1] and on rCB1 [4] were 5 ± 1.4 nM, 16 ± 2.4 nM and 0.7 ± 0.03 nM, respectively. Also, the concentration for a half-maximal effect (EC50) on rCB1 [2] came to 0.2 ± 0.04 nM; on hCB2 [3] it was 83.4 ± 4.7 nM. The figures for the Emax on rCB1 [2] (cAMP assay) and on hCB2 [3] were 89% and 72%, respectively.
As for `CCCCCc1cc(O)c2c(c1)OC(C)(C)[C@@H]1CCC(C)=C[C@@H]21` [Dronabinol], the “slow and erratic absorption” value in data set [5] is 2 to 6 h.
